Laboratory results taken from ChEMBL document CHEMBL6134851, “Comparative Study on Covalent and Noncovalent Endogenous Albumin-Binding β-Glucuronidase-Activated SN38 Prodrugs for Antitumor Efficacy” (J Med Chem, 2025).
Activity calls are given as the source filed them. The calls are words filed in the database; no cut-off is given here.

Columns and labels:
[1] = Prodrug release in human plasma assessed as (S)-4,11-diethyl-4,9-dihydroxy-1,12-dihydro-14H-pyrano[3',4':6,7]indolizino[1,2-b]quinoline-3,14(4H)-dione release measured after 7 days relative to control; type: ADME, cell-free; conditions: 168 h, time 7 day
Albumin = Albumin (Homo sapiens, UniProt P02768); test: Binding affinity to human serum albumin assessed as binding rate measured within 4 mins by HPLC analysis relative to control; type: ADME; conditions: isolated protein
A549 [2] = test: Antiproliferative activity against human A549 cells assessed as reduction in cell viability measured after 72 hrs in presence of beta-glucuronidase by MTT assay; type: functional, cell-based
A549 [3] = test: Antiproliferative activity against human A549 cells assessed as reduction in cell viability treated with HSA bound prodrug measured after 72 hrs by MTT assay; type: functional, cell-based
HCT-116 [4] = test: Antiproliferative activity against human HCT-116 cells assessed as reduction in cell viability treated with HSA bound prodrug measured after 72 hrs by MTT assay; type: functional, cell-based
BXPC-3 [5] = test: Antitumor activity against human BXPC-3 cells xenografted in female BALB/cA nude mouse model assessed as suppression of tumor growth by measuring relative tumor proliferation rate at 25 mg/kg, iv measured after 24 days relative to control; type: functional; conditions: time 24 day
[6] = Prodrug release in female BALB/c nude mouse tumor assessed as (S)-4,11-diethyl-4,9-dihydroxy-1,12-dihydro-14H-pyrano[3',4':6,7]indolizino[1,2-b]quinoline-3,14(4H)-dione accumulation at 25 mg/kg measured after 12 hr by HPLC analysis; type: ADME, organism-based, Neoplasm; conditions: in vivo
HCT-116 [7] = test: Antiproliferative activity against human HCT-116 cells assessed as reduction in cell viability measured after 72 hrs by MTT assay; type: functional, cell-based
[8] = Toxicity in female BALB/cA nude mouse assessed as appearance of inflammatory lesions in tumor at 25 mg/kg, iv administered once a week for 35 days by H and E staining based analysis; type: organism-based; conditions: in vivo, 840 h, time 35 day
HCT-116 [9] = test: Antiproliferative activity against human HCT-116 cells assessed as reduction in cell viability treated with HSA bound prodrug measured after 72 hrs in presence of beta-glucuronidase by MTT assay; type: functional, cell-based
[10] = Toxicity in female BALB/cA nude mouse assessed as fibrotic changes in tumor at 25 mg/kg, iv administered once a week for 35 days by H and E staining based analysis; type: organism-based; conditions: in vivo, 840 h, time 35 day
[11] = Toxicity in female BALB/cA nude mouse assessed as appearance of inflammatory lesions in spleen at 25 mg/kg, iv administered once a week for 35 days by H and E staining based analysis; type: organism-based; conditions: in vivo, 840 h, time 35 day
BXPC-3 [12] = test: Antiproliferative activity against human BXPC-3 cells assessed as reduction in cell viability treated with HSA bound prodrug measured after 72 hrs by MTT assay; type: functional, cell-based
A549 [13] = test: Antiproliferative activity against human A549 cells assessed as reduction in cell viability measured after 72 hrs by MTT assay; type: functional, cell-based
[14] = Cmax in female BALB/c mouse at 25 mg/kg measured up to 120 hrs by HPLC analysis; type: ADME, organism-based; conditions: in vivo
HCT-116 [15] = test: Antiproliferative activity against human HCT-116 cells assessed as reduction in cell viability measured after 72 hrs in presence of beta-glucuronidase by MTT assay; type: functional, cell-based
HCT-116 [16] = test: Antitumor activity against human HCT-116 cells xenografted in female BALB/cA nude mouse model assessed as tumor shrinkage at 25 mg/kg, iv administered twice per week measured after 65 days relative to control; type: functional; conditions: time 65 day
HepG2 [17] = test: Antiproliferative activity against human HepG2 cells assessed as reduction in cell viability treated with HSA bound prodrug measured after 72 hrs in presence of beta-glucuronidase by MTT assay; type: functional, cell-based
HepG2 [18] = test: Antiproliferative activity against human HepG2 cells assessed as reduction in cell viability measured after 72 hrs in presence of beta-glucuronidase by MTT assay; type: functional, cell-based
4T1 [19] = test: Antiproliferative activity against mouse 4T1 cells assessed as reduction in cell viability treated with HSA bound prodrug measured after 72 hrs in presence of beta-glucuronidase by MTT assay; type: functional, cell-based
4T1 [20] = test: Antiproliferative activity against mouse 4T1 cells assessed as reduction in cell viability measured after 72 hrs in presence of beta-glucuronidase by MTT assay; type: functional, cell-based
HepG2 [21] = test: Antiproliferative activity against human HepG2 cells assessed as reduction in cell viability measured after 72 hrs by MTT assay; type: functional, cell-based
[22] = Toxicity in female BALB/cA nude mouse assessed as effect on body weight loss at 25 mg/kg, iv administered once a week for 35 days; type: organism-based; conditions: in vivo, 840 h, time 35 day
[23] = Drug uptake in human HCT-116 cells assessed as increase in fluorescence intensity measured after 1 to 6 hrs by confocal microscopy analysis; type: ADME, cell-based; conditions: time 1-6 hrs
4T1 [24] = test: Antiproliferative activity against mouse 4T1 cells assessed as reduction in cell viability treated with HSA bound prodrug measured after 72 hrs by MTT assay; type: functional, cell-based
BXPC-3 [25] = test: Antiproliferative activity against human BXPC-3 cells assessed as reduction in cell viability treated with HSA bound prodrug measured after 72 hrs in presence of beta-glucuronidase by MTT assay; type: functional, cell-based
HepG2 [26] = test: Antiproliferative activity against human HepG2 cells assessed as reduction in cell viability treated with HSA bound prodrug measured after 72 hrs by MTT assay; type: functional, cell-based
[27] = Toxicity in female BALB/cA nude mouse assessed as animal fatality at 25 mg/kg, iv administered once a week for 35 days; type: organism-based; conditions: in vivo, 840 h, time 35 day
A549 [28] = test: Antiproliferative activity against human A549 cells assessed as reduction in cell viability treated with HSA bound prodrug measured after 72 hrs in presence of beta-glucuronidase by MTT assay; type: functional, cell-based
4T1 [29] = test: Antiproliferative activity against mouse 4T1 cells assessed as reduction in cell viability measured after 72 hrs by MTT assay; type: functional, cell-based
[30] = Toxicity in female BALB/cA nude mouse assessed as necrosis in tumor tissue at 38 mg/kg, iv measured after 24 hrs by H and E staining based analysis; type: organism-based; conditions: in vivo
[31] = Cmax in female BALB/c mouse at 38 mg/kg measured up to 168 hrs by HPLC analysis; type: ADME, organism-based; conditions: in vivo
[32] = Toxicity in female BALB/cA nude mouse assessed as effect on body weight loss at 38 mg/kg, iv administered once a week for 35 days; type: organism-based; conditions: in vivo, 840 h, time 35 day
[33] = Toxicity in female BALB/cA nude mouse assessed as appearance of inflammatory lesions in lung at 38 mg/kg, iv administered once a week for 35 days by H and E staining based analysis; type: organism-based; conditions: in vivo, 840 h, time 35 day
[34] = Toxicity in female BALB/cA nude mouse assessed as appearance of inflammatory lesions in liver at 38 mg/kg, iv administered once a week for 35 days by H and E staining based analysis; type: organism-based; conditions: in vivo, 840 h, time 35 day
BXPC-3 [35] = test: Antitumor activity against human BXPC-3 cells xenografted in female BALB/cA nude mouse model assessed as suppression of tumor growth by measuring relative tumor proliferation rate at 38 mg/kg, iv measured after 18 days; type: functional, organism-based; conditions: time 18.0 day
[36] = Toxicity in female BALB/cA nude mouse assessed as appearance of fibrosis in heart at 38 mg/kg, iv measured after 24 hrs by H and E staining based analysis; type: organism-based; conditions: in vivo
[37] = Toxicity in female BALB/cA nude mouse assessed as damage in heart at 38 mg/kg, iv measured after 24 hrs by H and E staining based analysis; type: organism-based; conditions: in vivo

Sequence of Albumin (P02768 whole entry): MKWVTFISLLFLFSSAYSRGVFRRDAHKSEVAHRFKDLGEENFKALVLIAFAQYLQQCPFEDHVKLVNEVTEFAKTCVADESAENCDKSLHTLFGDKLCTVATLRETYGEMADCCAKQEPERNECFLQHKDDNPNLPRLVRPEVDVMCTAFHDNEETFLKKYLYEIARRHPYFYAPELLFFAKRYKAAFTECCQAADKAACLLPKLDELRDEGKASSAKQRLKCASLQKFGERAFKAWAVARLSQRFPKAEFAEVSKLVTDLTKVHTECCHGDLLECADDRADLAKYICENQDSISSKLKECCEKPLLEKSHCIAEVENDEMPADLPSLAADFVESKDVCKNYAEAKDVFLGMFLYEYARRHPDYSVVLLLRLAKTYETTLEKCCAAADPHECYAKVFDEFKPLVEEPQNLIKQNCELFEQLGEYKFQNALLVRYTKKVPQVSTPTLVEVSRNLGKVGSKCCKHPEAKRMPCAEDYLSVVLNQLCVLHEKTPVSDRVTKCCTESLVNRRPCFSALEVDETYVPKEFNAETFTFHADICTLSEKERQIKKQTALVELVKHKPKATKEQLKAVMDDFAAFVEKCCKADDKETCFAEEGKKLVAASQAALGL

| SMILES | Drug metabolism [1] | Activity (Albumin) [%] | Activity (A549 [2]) | Activity (A549 [3]) | Activity (HCT-116 [4]) | Activity (HCT-116 [7]) | Activity (HCT-116 [9]) | Activity (BXPC-3 [12]) | Activity (A549 [13]) | Activity (HCT-116 [15]) | Activity (HepG2 [17]) | Activity (HepG2 [18]) | Activity (4T1 [19]) | Activity (4T1 [20]) | Activity (HepG2 [21]) | Drug uptake [23] | Activity (4T1 [24]) | Activity (BXPC-3 [25]) | Activity (HepG2 [26]) | Activity (A549 [28]) | further results |
| --- | --- | --- | --- | --- | --- | --- | --- | --- | --- | --- | --- | --- | --- | --- | --- | --- | --- | --- | --- | --- | --- |
| CCc1c2c(nc3ccc(OCc4ccc(O[C@@H]5O[C@H](C(=O)O)[C@@H](O)[C@H](O)[C@H]5O)c(NC(=O)CCNC(=O)CCCCCN5C(=O)C=CC5=O)c4)cc13)-c1cc3c(c(=O)n1C2)COC(=O)[C@]3(O)CC | metabolite_notdetected | 99 | Active | inactive | inactive | Not active; Compound Showed Lower Cytotoxicity Compared To Sn38 | Active | inactive | Not active; Compound Showed Lower Cytotoxicity Compared To Sn38 | Active | Active | Active | Active | Active | Not active; Compound Showed Lower Cytotoxicity Compared To Sn38 | Active | inactive | Active | inactive | Active | Activity (BXPC-3 [5]): 8.97%; Drug metabolism [6]: 0.725 % ID/g; Activity [8]: Non-toxic; Activity [10]: Non-toxic; Activity [11]: Non-toxic; Cmax [14]: 50.7 µg/mL; Activity (HCT-116 [16]): 100%; Activity [22]: Non-toxic; Activity [27]: Non-toxic; Activity (4T1 [29]): Not active; Compound Showed Lower Cytotoxicity Compared To Sn38 |
| CCc1c2c(nc3ccc(OCc4ccc(O[C@@H]5O[C@H](C(=O)O)[C@@H](O)[C@H](O)[C@H]5O)c(NC(=O)CCNC(=O)COCCOCCNC(=O)COCCOCCNC(=O)CC[C@H](NC(=O)CCCCCCCCCCCCCCCCC(=O)O)C(=O)O)c4)cc13)-c1cc3c(c(=O)n1C2)COC(=O)[C@]3(O)CC | metabolite_notdetected | 95 | Active | inactive | inactive | Not active; Compound Showed Lower Cytotoxicity Compared To Sn38 | Active | inactive | Not active; Compound Showed Lower Cytotoxicity Compared To Sn38 | Active | Active | Active | Active | Active | Not active; Compound Showed Lower Cytotoxicity Compared To Sn38 | Active | inactive | Active | inactive | Active | Activity [30]: Toxic; Cmax [31]: 112 µg/mL; Activity [32]: Non-toxic; Activity [33]: Non-toxic; Activity [34]: Non-toxic; Activity (BXPC-3 [35]): inactive; Activity [36]: Toxic; Activity [37]: Toxic; Activity (4T1 [29]): Not active; Compound Showed Lower Cytotoxicity Compared To Sn38 |
